Results taken from the NIST ThermoML archive (doi:10.1016/j.fluid.2010.01.027).
± gives the expanded uncertainty stated by the source.

Assay: wn = mass fraction of the nth substance listed
Conditions: Gas, sonar gas analyzer

FC(F)(F)C(F)(F)C(F)(F)F [octafluoropropane] + FC(F)(F)C(F)(F)C(F)(F)C(F)(F)F
speed of sound [m/s]
Conditions	w1 = 0.397	w1 = 0.83
248.2 K, 10 kPa	–	105.12 ± 1.2
248.2 K, 13 kPa	–	105.03 ± 1.2
248.2 K, 20 kPa	–	104.84 ± 1.2
248.2 K, 27 kPa	–	104.58 ± 1.2
248.2 K, 30 kPa	–	104.45 ± 1.2
248.2 K, 33 kPa	–	104.36 ± 1.2
248.2 K, 40 kPa	–	104.12 ± 1.2
248.2 K, 47 kPa	–	103.84 ± 1.2
248.2 K, 50 kPa	–	103.75 ± 1.2
248.2 K, 53 kPa	–	103.57 ± 1.2
248.2 K, 60 kPa	–	103.27 ± 1.2
248.2 K, 67 kPa	–	103.07 ± 1.2
259.2 K, 10 kPa	102.59 ± 1.2	107.4 ± 1.2
259.2 K, 20 kPa	102.16 ± 1.2	107.18 ± 1.2
259.2 K, 30 kPa	101.68 ± 1.2	106.95 ± 1.2
259.2 K, 50 kPa	101.06 ± 1.2	106.3 ± 1.2
259.2 K, 70 kPa	100.12 ± 1.2	105.81 ± 1.2
259.2 K, 100 kPa	–	104.56 ± 1.2
259.2 K, 150 kPa	–	102.68 ± 1.2
259.2 K, 200 kPa	–	101.95 ± 1.2
271.3 K, 10 kPa	–	109.58 ± 1.2
271.3 K, 20 kPa	–	109.17 ± 1.2
271.3 K, 30 kPa	–	108.68 ± 1.2
271.3 K, 50 kPa	–	107.95 ± 1.2
271.3 K, 70 kPa	–	107.66 ± 1.2
271.3 K, 100 kPa	–	106.4 ± 1.2
271.3 K, 150 kPa	–	104.9 ± 1.2
271.3 K, 200 kPa	–	103.44 ± 1.2
271.3 K, 250 kPa	–	102.59 ± 1.2
271.4 K, 10 kPa	104.64 ± 1.2	–
271.4 K, 20 kPa	104.3 ± 1.2	–
271.4 K, 30 kPa	103.82 ± 1.2	–
271.4 K, 50 kPa	103.1 ± 1.2	–
271.4 K, 70 kPa	102.4 ± 1.2	–
271.4 K, 100 kPa	101.14 ± 1.2	–
271.4 K, 150 kPa	99.12 ± 1.2	–
283.1 K, 10 kPa	106.56 ± 1.2	112.12 ± 1.2
283.1 K, 20 kPa	106.36 ± 1.2	111.72 ± 1.2
283.1 K, 30 kPa	105.98 ± 1.2	111.47 ± 1.2
283.1 K, 50 kPa	105.5 ± 1.2	111.19 ± 1.2
283.1 K, 70 kPa	104.76 ± 1.2	110.59 ± 1.2
283.1 K, 100 kPa	103.71 ± 1.2	109.75 ± 1.2
283.1 K, 150 kPa	101.86 ± 1.2	108.4 ± 1.2
283.1 K, 200 kPa	100.08 ± 1.2	106.92 ± 1.2
283.1 K, 250 kPa	–	105.34 ± 1.2
283.1 K, 297 kPa	–	103.72 ± 1.2
283.1 K, 350 kPa	–	101.99 ± 1.2
283.1 K, 400 kPa	–	100.1 ± 1.2
294 K, 10 kPa	109.01 ± 1.2	–
294 K, 20 kPa	108.7 ± 1.2	–
294 K, 30 kPa	108.4 ± 1.2	–
294 K, 50 kPa	107.67 ± 1.2	–
294 K, 70 kPa	107.07 ± 1.2	–
294 K, 100 kPa	106.22 ± 1.2	–
294 K, 150 kPa	104.61 ± 1.2	–
294 K, 200 kPa	103.01 ± 1.2	–
294.1 K, 10 kPa	–	114.96 ± 1.2
294.1 K, 20 kPa	–	114.62 ± 1.2
294.1 K, 30 kPa	–	114.35 ± 1.2
294.1 K, 50 kPa	–	113.75 ± 1.2
294.1 K, 70 kPa	–	113.21 ± 1.2
294.1 K, 100 kPa	–	112.3 ± 1.2
294.1 K, 150 kPa	–	111 ± 1.2
294.1 K, 200 kPa	–	109.85 ± 1.2
301.4 K, 10 kPa	–	116.15 ± 1.2
301.4 K, 20 kPa	–	116.05 ± 1.2
301.4 K, 30 kPa	–	115.78 ± 1.2
301.4 K, 50 kPa	–	115.29 ± 1.2
301.4 K, 70 kPa	–	114.72 ± 1.2
301.4 K, 100 kPa	–	114.03 ± 1.2
301.4 K, 150 kPa	–	112.72 ± 1.2
301.4 K, 200 kPa	–	111.59 ± 1.2
302.1 K, 10 kPa	110.14 ± 1.2	–
302.1 K, 20 kPa	109.74 ± 1.2	–
302.1 K, 30 kPa	109.67 ± 1.2	–
302.1 K, 50 kPa	109.29 ± 1.2	–
302.1 K, 70 kPa	108.73 ± 1.2	–
302.1 K, 100 kPa	107.89 ± 1.2	–
